Test results published in patent US20230390224A1, “UNITARY ORAL DOSAGE FORM IN BASE OF SPHERICAL AND/OR SPHEROIDAL SHAPED PARTICLES” (ATOMIC PHARMACEUTICS INC., priority 2022, published 2023).
Counter-ions that a name gives are not always drawn.

Tests used:
[1] = cited from earlier work
[2] = cited from earlier work; remark: listed apart in the source
[3] = Release of API from gel particles into liquid medium B (spectrophotometry; Weibull Fmax, Higuchi release rate); format: physicochemical; conditions: liquid medium B and liquid medium C
Procedure: To the measurements of APIs release, the APIs concentrations were determined spectrophotometrically, by sampling in a Thermo Spectronic Genesys 10 UV equipment. Each of the measurements were performed in duplicate or more trials. The wavelengths occupied will depend on each API tested (for example, 243 nm for acetaminophen, 230 nm for naproxen).
To evaluate each of the experiments carried out and adjust the concentration points during the release experiments, various methods were used: zero order models, first order, Higuchi, Hixson-Crowell, square root of the mass, root 3/2 of the mass, Weibull and Korsmeyer-Peppas. The model that best fits the concentration points during the release experiments was a Weibull model (Vasiliki Papadopoulou, Kosmas Kosmidis, Marilena Vlachou, Panos Macheras, “On the use of the Weibull function for the discernment of drug release mechanisms,” International Journal of Pharmaceutics 309 (2006) 44-50).
An example of the surprising effects of modification of these formulation design factors is shown below for the same API (acetaminophen or paracetamol), as an example of the different effects that can be achieved using the same amount of API in all formulations (120 mg of total acetaminophen in each example). […]

Row | release of API into the aqueous medium [3] | SMILES | log P [1] | solubility in oily media / oil phase [2] | solubility in water [2]
1 |  | CC(=O)Nc1ccc(O)cc1 [Acetaminophen, acetaminophen] | 4.6 | poorly soluble | poorly soluble
2 |  | CC(=O)Oc1ccccc1C(=O)O [Acetyl salicylic acid, acetyl salicylic acid] |  | slightly soluble | soluble
3 |  | C=C(C)[C@@H]1CCC(C)=C[C@H]1c1c(O)cc(CCCCC)cc1O [CBD, cannabinoidiol] | 7.75 | highly soluble | very slightly soluble
4 |  | CN(C)CCC(c1ccc(Cl)cc1)c1ccccn1 (stereo not shown) [Chlorphenamine maleate, chlorphenamine maleate] | 3.7 |  | 
5 | no release | Cc1cccc(Nc2ccccc2C(=O)O)c1C [Mefenamic acid, mefenamic acid] | 4.2 | not soluble | very poorly soluble
